# How the values were obtained:
# Type in all cases: cell-based, human
# [1] = system: MCF7/FasR and MCF7/FasR/Bcl-xL cells; assay: Bcl-xL dependence of cell death, MTT in MCF7/FasR vs MCF7/FasR/Bcl-xL; conditions: complexes: 458 nm irradiation, 10 nM to 1 µM, TNFα 100 ng/mL, 72 h
# Text: To determine the mechanism of cell death, we used MCF7 cells transfected to express the human Fas receptor (FasR) or doubly transfected to express the human Fas receptor and human Bcl-xL [75]. Since MCF7 cells express the TNF receptor endogenously, this allowed the study of both Fas- and TNFα-mediated apoptosis in the same cell model to assess whether cell death was dependent on the Bcl-2 family of mitochondrial proteins such as Bcl-xL. […]
# Mitochondrial outer membrane permeabilization (MOMP), which leads to rapid cell death through the release of mitochondrial proteins (including cytochrome c) that activate executioner caspases, is the critical event in intrinsic apoptosis. […] We then assessed whether the cell death induced by our complexes could be abrogated by the overexpression of Bcl-xL.
# A tetrazolium-based MTT reagent (3-(4,5-dimethylthiazol-2-yl)-2,5-diphenyltetrazolium bromide) was used to determine cell viability, as previously described. […] After solubilization with 500 μL of lysis buffer (DMSO), formazan was quantified by spectrophotometry with a microplate reader at 570 nm absorbance (ClarioSTAR, BMG LabTech, Champigny-sur-Marne, France). […] All results were calculated from data obtained in at least three independent experiments. […]
# Figure 13 Evaluation of apoptotic biomarkers. […] (B) MTT, ATP and GSH assays were evaluated in duplicate samples. […]
# [2] = system: MCF7/FasR and MCF7/FasR/Bcl-xL cells; assay: ATP quantification (CellTiter-Glo); conditions: increasing concentration, 458 nm irradiation, 72 h
# Procedure: ATP and glutathione (GSH) contents were measured with the Promega CellTiter-Glo (Cat#G7570) and GSH-Glo (cat#6911) luminescent assays, respectively, according to the manufacturer’s recommendations.
# Figure 13 Evaluation of apoptotic biomarkers. MCF7/FasR and MCF7/FasR/Bcl-xL cells were irradiated at 458 nm in presence of the indicated concentration of complex 4a or treated with […] TNFα for 72 h. (A) Cytosolic extracts from MCF7/FasR and MCF7/FasR/Bcl-xL cells were separated by SDS-PAGE and probed with anti-PARP, anti-caspase-7 and anti-caspase-8. Migrations indicated are: full-length PARP p113, cleaved PARP p89, full-length caspase-7 and full-length caspase-8. (B) MTT, ATP and GSH assays were evaluated in duplicate samples. Data are expressed as percent (%) of untreated cells and are the means of 3 independent experiments (***, p < 0.0001, NS, not significant).
# MCF7/FasR cells = assay: Cell death with or without pan-caspase inhibitor z-VAD-fmk, MTT; conditions: 500 nM complex, 10 µM z-VAD-fmk, 458 nm irradiation, 72 h
# Text: To determine the mechanism of cell death, we used MCF7 cells transfected to express the human Fas receptor (FasR) or doubly transfected to express the human Fas receptor and human Bcl-xL [75]. Since MCF7 cells express the TNF receptor endogenously, this allowed the study of both Fas- and TNFα-mediated apoptosis in the same cell model to assess whether cell death was dependent on the Bcl-2 family of mitochondrial proteins such as Bcl-xL. […] This is consistent with findings that death receptors such as FasR and TNFR can mediate apoptosis through both the extrinsic pathway (mitochondria-independent by directly activating executioner caspases via upstream caspase-8) and the intrinsic (mitochondrial) pathway controlled by the Bcl-2 family of proteins.
# We next evaluated the effect of the pan-caspase inhibitor z-VAD-fmk on caspase signaling. As expected, the treatment with z-VAD-fmk rendered MCF7/FasR cells resistant to TNFα-induced PARP and caspase-7 processing (Figure 14A) and to the loss of cell viability (Figure 14B).
# A tetrazolium-based MTT reagent (3-(4,5-dimethylthiazol-2-yl)-2,5-diphenyltetrazolium bromide) was used to determine cell viability, as previously described. After 72 h of treatment at 37 °C and 5% CO2, cells were incubated with 25 μL MTT solution (5 mg/mL; Sigma-Aldrich) for 4 h. After solubilization with 500 μL of lysis buffer (DMSO), formazan was quantified by spectrophotometry with a microplate reader at 570 nm absorbance (ClarioSTAR, BMG LabTech, Champigny-sur-Marne, France). […] All results were calculated from data obtained in at least three independent experiments.
# Figure 11 Bcl-xL and z-VAD-fmk inhibited by Fas- or TNFα-induced cell death in MCF7 cells. […] Cell death was assessed by MTT assay. […]
# Figure 14 Evaluation of apoptotic biomarkers. […] (B) Cell viability was evaluated in duplicate samples. Data are expressed as percent (%) of untreated cells and are the means of 3 independent experiments (***, p < 0.0001, NS, not significant).
structure (smiles),measurement,setting,value
CC(C)[n+]1ccn2[c]1[Ir-3]13([c]4ccccc4-c4cccc[n+]41)([c]1ccccc1-c1cccc[n+]13)[c]1n(cc[n+]1C(C)C)C2.F[P-](F)(F)(F)(F)F [Complex 4a],effect of Bcl-xL overexpression on loss of cell viability,[1],not affected by Bcl-xL overexpression
same,ATP level,[2],loss of ATP
same,effect of z-VAD-fmk on cell death induced by the complex,MCF7/FasR cells,could not prevent cell death
